Data published in patent publication US20240050735A1, “SYSTEMS AND METHODS FOR TREATING AND INHIBITING WOUND INFECTIONS” (priority 2020, published 2024).
Like-named read-outs stand apart in the source and are kept apart here.

Key:
HDFa cells = assay: Cell toxicity of high concentration of antibiotics, LIVE/DEAD stain; format: cell-based, human; details: 20 mg mL^−1 DAP, 24 hour incubation
Procedure: (§1) To evaluate the cell toxicity of the high concentration of antibiotics, HaCaT cells and HDFa cells were used. 2×10^4 HaCat cells and 2×10^3 HDFa cells were seeded in each well of a 96-well plate. After being cultured in an incubator under 37° C. and 5% CO2 for 24 hours, 4.5 mg mL^−1 VAN and 20 mg mL^−1 DAP were added to the culture media, respectively. Both HaCat cells and HDFa cells were treated by VAN for two days, and exposed to DAP for one day, respectively. The cell toxicity of the two cells at the end time points were evaluated by LIVE/DEAD stain and visualized by a confocal laser scanning microscope (CLSM, LSM 710, Zeiss, Germany).

HaCaT cells = assay: as above; format: cell-based, human; details: 20 mg mL^−1 DAP, 24 hour incubation
Procedure: as §1

planktonic MRSA = assay: Time-killing test on planktonic MRSA in stationary phase; format: cell-based, Methicillin-resistant S. aureus (MRSA) USA300; details: 5 mg mL^−1 DAP, within 24 hours
Procedure: MRSA bacteria was cultured in LB media in a 37° C. water shaking bath overnight to reach the concentration of 1×10^8 CFU mL^−1. Then, they were diluted to 10^5 CFU mL^−1 in 96-well plates by adding different concentrations of VAN solutions. After incubation for 24 hours without shaking, MIC of VAN to inhibit MRSA growth was measured by a Biotek Synergy H1 hybrid multi-mode microplate reader (BioTek, Winooski, Vt., USA) at OD600. To evaluate the killing time of VAN to bacteria in stationary phase (1×10^8 CFU mL^−1), VAN powder was added to bacteria solution to obtain concentration of 1 mg mL^−1, 3 mg mL^−1, 5 mg mL^−1, and 10 mg mL^−1, respectively, while remaining MRSA concentration of 1×10^8 CFU mL^−1. After incubation in a 37° C. water bath for 1 day, 2 days, 3 days and 4 days, the CFU of MRSA cells was tested by the standard plate spread counting assay, respectively. The time-killing tests of DAP with different concentrations (0.1 mg mL^−1, 0.5 mg mL^−1, 1 mg mL^−1, and 5 mg mL^−1) on MRSA planktonic cells were also performed, with the incubation time up to 24 hours.

[1] = format: in vitro ADME; details: for concentration delivered to wound tissues: 5 mg mL^−1 DAP loaded
Procedure: Investigations were also performed to determine the iontophoretic antibiotic delivery efficiency of the HIC-based biofilm treatment system 100 using high current intensities. These investigations included an ex vivo antibiotic delivery study using the same MRSA biofilm-infected porcine skin wound model as in the previous section. Vancomycin (VAN) was used here as a model drug, since it is the FDA-approved antibiotic and is the clinical gold standard for combating S. aureus infections.
First the VAN delivery efficiency was tested at different current intensities (from 0 mA cm^−2 (passive diffusion) to 75 mA cm^−2) applied by the HIC-based biofilm treatment system 100 for 1 hour. The drug/buffer chamber 114 of the working device 104 was loaded with 1 mg mL^−1 VAN in this study. The anode side was used as the working device 104 because VAN required anodal iontophoresis. The accumulated concentration of VAN in biofilm infected skin wound was measured immediately after iontophoresis using high performance liquid chromatography (HPLC). […] When 75 mA cm^−2 was used, the VAN concentration in wound tissue increased to 4.5±0.52 mg g^−1. The VAN concentration in wound tissue after passive diffusion, 0.5 mA cm^−2, and 19 mA cm^−2 iontophoresis were also measured. However, they could not be distinguished from the background interference of the residual biofilm components, so no quantitative results were obtained (data not shown). Importantly, the VAN concentration delivered by 75 mA cm^−2 iontophoresis for 1 hour exceeded the minimal biofilm eradication concentration (MBEC) of VAN reported for MRSA biofilm, which was 4 mg g^−1. The ability to deliver a lethal antibiotic concentration into biofilm-infected wounds within a short period of time was critical for biofilm treatment as it would minimize the chance for bacteria to develop adaptive tolerance.
The fetal pig skin samples (approximately 30×30 mm) were immersed in 10% (v/v) bleach for 5 minutes after hair removal. Then, skin samples were sterilized in 70% ethanol for 30 minutes. The surface of skin sample was further cleaned by 10% povidone-iodine and 70% isopropanol to prevent contamination. A 6-mm disposable biopsy punch was used to create an excisional wound. Samples were put into sterile 10-cm petri-dishes filled with sterile PBS (6 mL). The wound was then inoculated with 1×10^8 CFU mL^−1 MRSA bacteria solution (20 μL). The bacteria were allowed to grow in a 37° C. Heratherm™ compact microbiological incubator (ThermoFischer Scientific™, Waltham, Mass., USA) for 48 hours to form mature biofilms.
To evaluate the antibiotic delivery efficacy of VAN by high-intensity current, biofilm infected fetal pig skin wound was used. The DAP test setup was same as that of VAN, except no PBS chamber 122 was used. Instead, the inner surface of the skin wound contacted directly to the hydrogel 120 of the counter device 106. To evaluate the effect of electrical current intensity on the drug delivery efficacy, different current intensities from 0 to 75 mA cm^−2 were applied. To evaluate the effect of loading concentration of antibiotics, different concentrations of VAN and DAP from 1 mg mL^−1 to 10 mg mL^−1 were used. Since VAN is […] and DAP is negatively charged under physiological environment, anode HIC-based device was placed facing biofilm for VAN iontophoresis, and cathode HIC-based device was placed facing biofilm for DAP iontophoresis. Samples were collected immediately after different treatments. The concentrations of antibiotics delivered into skin wound samples were measured by high-performance liquid chromatography (HPLC). The permeation coefficient (Pc, cm s^−1) was then calculated (Pc=J/C, where J is antibiotic delivery flux in tissue samples (μg (cm^2s)^−1, C is the loading concentration of antibiotic solution (μg m L^−1)). […]

[2] = test system: S. aureus persister cells; details: even at 100×MIC; cited from earlier work
[3] = format: in vitro ADME, porcine; details: for distribution in wound tissue (fluorescence): 1 mg mL^−1 FD-4
Procedure: It was determined that high-intensity iontophoresis using the HIC-based biofilm treatment system 100 was able to enhance the VAN penetration depth in wound tissues. A high penetration depth would allow effective treatment of bacteria in deeper layers of clinical biofilm infections to minimize biofilm reformation. A fluorescently labeled dextran (M.W.=4 kDa, FD-4) was used to visualize drug distribution in wound tissue immediately after iontophoresis in this test. […] All wound tissues were dehydrated by acetone before sectioning to minimize FD-4 mobility during sample processing. When passive diffusion and 0.5 mA cm^−2 were applied, the fluorescence was indiscernible under microscope. […] This penetration depth was higher than the typical thickness of in vivo S. aureus biofilm infections in skin wounds (150 μm above wound surface and 190 μm below wound surface).
FD-4 penetration and distribution in the MRSA biofilm infected skin wound was evaluated by cryo-section and fluorescent microscopy. Briefly, samples were collected by 8-mm disposable biopsy punch and dehydrated in acetone for 10 to 30 minutes. After being air dried for another 10 to 30 minutes, the samples were embedded in tissue freezing medium (OCT) and sectioned to obtain 10 μm section under −20 ° C. Section samples were then observed under a fluorescent microscope (DMI 6000 B, Leica, Bannockburn, Ill., USA).

S. gordonii biofilms = details: cited from earlier work

Compound: CCCCCCCCCC(=O)N[C@@H](Cc1c[nH]c2ccccc12)C(=O)N[C@H](CC(N)=O)C(=O)N[C@@H](CC(=O)O)C(=O)N[C@@H]1C(=O)NCC(=O)N[C@@H](CCCN)C(=O)N[C@@H](CC(=O)O)C(=O)N[C@H](C)C(=O)N[C@@H](CC(=O)O)C(=O)NCC(=O)N[C@H](CO)C(=O)N[C@@H]([C@H](C)CC(=O)O)C(=O)N[C@@H](CC(=O)c2ccccc2N)C(=O)O[C@@H]1C [DAP, Daptomycin]
- viability of skin cells (HDFa cells): did not have significant impact
- viability of skin cells (HaCaT cells): did not have significant impact
- bacterial count after incubation (from 10^8 CFU g^−1) (planktonic MRSA): 0 CFU g^−1
- Pc at 75 mA cm^−2 higher than 0.5 mA cm^−2 iontophoresis ([1]; 5 mg mL^−1 DAP): 10.1 times
- Pc at 75 mA cm^−2 higher than passive diffusion ([1]; 5 mg mL^−1 DAP): 12.0 times
- permeation coefficient (Pc) ([1]; 0.5 mA cm^−2 iontophoresis, 5 mg mL^−1 DAP): 15.7±3.37 ×10^−6 cm s^−1
- concentration delivered into wound tissue ([1]; 75 mA cm^−2, 1 hour, 1 mg mL^−1 DAP loaded): 3.3 ± 1.49 mg/g
- concentration delivered to wound tissues ([1]; 75 mA cm^−2, 1 hour): 19.9 ± 1.45 mg/g
- concentration delivered into wound tissue ([1]; 75 mA cm^−2, 1 hour, 10 mg mL^−1 DAP loaded): 32.8 ± 5.68 mg/g
- permeation coefficient (Pc) ([1]; 75 mA cm^−2 iontophoresis, 5 mg mL^−1 DAP): 158.3±11.18 ×10^−6 cm s^−1
- permeation coefficient (Pc) ([1]; passive diffusion, 5 mg mL^−1 DAP): 13.2±3.15 ×10^−6 cm s^−1
- concentration delivered to wound tissues ([1]; passive diffusion, 1 hour): 1.7 ± 0.59 mg/g
- killing of S. aureus persister cells [2]: not capable of killing

Compound: Fluorescein isothiocyanate (FITC) labeled dextran-4 kDa [FD-4]
- distribution in wound tissue (fluorescence) ([3]; 0.5 mA cm^−2, 1 hour): indiscernible
- distribution in wound tissue (fluorescence) ([3]; 19 mA cm^−2, 1 hour): fluorescence could only be seen near the upper boundary of the wound tissue
- penetration depth (entire tissue thickness, after dehydration) ([3]; 75 mA cm^−2, 1 hour): 182.4±12.62 μm
- penetration depth (entire tissue thickness, before dehydration) ([3]; 75 mA cm^−2, 1 hour): 955.7±192.56 μm
- distribution in wound tissue (fluorescence) ([3]; 75 mA cm^−2, 1 hour): penetrated the entire thickness of the tissue sample
- distribution in wound tissue (fluorescence) ([3]; passive diffusion, 1 hour): indiscernible

Compound: gentamicin
- biofilm bacterial count reduction (S. gordonii biofilms; 0.4 mA cm^−2 with 2 μg mL^−1 gentamicin, 24 hours): 4.3 log10 scales
- bacteria count reduction (S. gordonii biofilms; antibiotic alone): 0.8 log10 scale
